Measured values from patent publication US10487056B2, “Small molecule androgen receptor inhibitors and methods of use thereof” (GEORGETOWN UNIVERSITY, priority 2015, dated 2019).

Experiments:
Assay type in all cases: cell-based
AR [1] = target: T1, AR (Homo sapiens, UniProt P10275); test: VCaP-ARE-luc androgen-response element luciferase reporter assay; conditions: DHT 1 nM, 24 hours
T1 construct: Androgen-dependent VCaP cells were made to stably express an androgen-response element luciferase reporter (VCaP-ARE-luc); host or cells: VCaP / VCaP-ARE-luc
T1 sequence (P10275 1-920): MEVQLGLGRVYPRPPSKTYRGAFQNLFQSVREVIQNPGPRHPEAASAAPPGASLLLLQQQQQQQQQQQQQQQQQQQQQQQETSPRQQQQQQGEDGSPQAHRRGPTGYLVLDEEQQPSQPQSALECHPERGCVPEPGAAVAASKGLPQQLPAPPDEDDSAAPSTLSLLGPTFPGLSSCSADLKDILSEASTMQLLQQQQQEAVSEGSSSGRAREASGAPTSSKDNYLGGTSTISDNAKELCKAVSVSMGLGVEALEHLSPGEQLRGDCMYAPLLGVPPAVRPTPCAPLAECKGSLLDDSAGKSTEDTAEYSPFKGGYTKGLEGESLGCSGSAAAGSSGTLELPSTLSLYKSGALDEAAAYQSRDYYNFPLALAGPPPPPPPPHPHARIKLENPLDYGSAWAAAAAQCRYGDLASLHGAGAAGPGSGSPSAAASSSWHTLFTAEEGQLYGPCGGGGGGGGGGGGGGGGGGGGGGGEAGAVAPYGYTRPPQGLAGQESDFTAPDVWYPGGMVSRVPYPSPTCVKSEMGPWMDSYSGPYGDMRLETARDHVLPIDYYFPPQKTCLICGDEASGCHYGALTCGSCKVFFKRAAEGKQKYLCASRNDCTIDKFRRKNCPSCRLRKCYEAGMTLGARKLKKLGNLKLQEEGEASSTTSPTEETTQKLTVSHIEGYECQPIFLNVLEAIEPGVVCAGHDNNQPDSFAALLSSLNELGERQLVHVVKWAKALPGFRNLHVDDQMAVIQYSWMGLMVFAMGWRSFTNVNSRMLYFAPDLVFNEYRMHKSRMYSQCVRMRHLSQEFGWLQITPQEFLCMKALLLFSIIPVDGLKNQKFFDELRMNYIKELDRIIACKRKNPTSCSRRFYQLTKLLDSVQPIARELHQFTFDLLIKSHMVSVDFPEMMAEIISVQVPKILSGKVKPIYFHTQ
Protocol: VCaP and CWR22Rv1 (referred to as 22Rv1) cells were transduced with ARE-luciferase Cignal Lenti Pathway Reporter (Qiagen; Valencia, Calif.) and cultured as described above in the presence of 1 μg/mL puromycin. Following antibiotic selection, cells stably expressing ARE-luciferase were isolated, cloned and cultured to generate a stable ARE-reporter cell lines.
Androgen-dependent VCaP cells were made to stably express an androgen-response element luciferase reporter (VCaP-ARE-luc).

hTERT promoter = test: hTERT promoter-luciferase reporter in 22Rv1 cells; conditions: 2.5 μM, 24 hours
Protocol: 22Rv1 cells were transfected with hTERT promoter-luciferase reporter construct and Renilla luciferase plasmids (pRL-TK-Luc) and treated with 2.5 μM of SH-I-125 for 24 hours. Promoter activity was determined after normalization with Renilla luciferase activity. Columns, mean of three independent experiments with quadruplicate samples; bars, SEM.

[2] = system: VP16-Gal4DBD fusion protein; test: VP16-Gal4DBD / UAS-luc reporter, negative control; conditions: SH-I-125 1 μM, 24 hours
Protocol: 22Rv1 cells were co-transfected with VP16 activation domain-Gal4DBD fusion protein and Gal4UAS-TATA-luciferase reporter and treated with SH-I-125 (1 μM) for 24 hours. Luciferase activity was measured and normalized with Renilla luciferase. Columns, mean of three independent experiments with quadruplicate samples; bars, SEM.
The N-terminal domain of the AR (AR NTD) is known to be its transactivation domain, essential for ligand-independent AR activation. Mahanine is able to inhibit AR activation induced by ligand-independent mechanisms such as forskolin and interleukin-6, which activate the AR NTD. […] As a negative control, a constitutively active VP16-Gal4DBD fusion protein and the UAS-luc reporter were co-expressed in […]. […] […].

PrEC = test: Live and dead cell staining, PrEC cells; conditions: SH-I-125 5 μM, 3 days
Protocol: Live and dead cells were determined using a Cell Viability/Cytotoxicity Assay kit (Biotium Inc.; Hayward, Calif.).
To determine the effects of SH-I-125 on prostate cancer cell growth, 22Rv1 cells were treated with SH-I-125 and cell viability was measured after a period of 3 days. […]. In comparison, non-tumorigenic primary prostate epithelial cells (PrEC) retained 80% viability in the presence of a similar range of doses of SH-I-125, showing that tumorigenic cells are more susceptible to the growth inhibitory properties of SH-I-125 compared to non-tumorigenic cells (FIG. 8B). […] Staurosporine was used as a positive control for cell death induction in live and dead assays (FIG. 9C).

22Rv1 cells = test: Caspase-Glo 3/7 activity assay, 22Rv1 cells
Protocol: 22Rv1 cells were treated with SH-I-125 (1 μM) for one, two, or three days, and caspase 3/7 activity was measured using Caspase-Glo 3/7 substrates. […] Data represent mean of three independent experiments with quadruplicate samples; bars, SEM. ***, p value <0.001 determined by ANOVA.
(§1) Caspase 3/7 activity was measured using Caspase-Glo 3/7 substrates. Data represent mean of three independent experiments with quadruplicate samples; bars, SEM. ***, p value <0.001 determined by ANOVA.
[…]; Madison, Wis.).
. […] Staurosporine was used as a positive control for apoptosis induction (FIG. 10B).

VCaP cells = test: Caspase-Glo 3/7 activity assay, VCaP cells; conditions: 3 days
Protocol: as §1

AR and AR-V7 = test: Western blot of AR and AR-V7 levels in 22Rv1 cells
Protocol: AR levels were assessed by Western blotting. β-actin was used as a loading control.
(§2) AR and AR-V7 levels were assessed. β-actin was used as a loading control.
as §2
MG132 (5 μM), a known proteasome inhibitor, was added on Day 2. AR expression was assessed by Western blotting. β-actin was used as a loading control.

AR [3] = test: VCaP-MDVR-ARE-luc luciferase reporter assay; conditions: VCaP-MDVR-ARE-luc cells, range of doses, 24 hours
Protocol: […]. Luciferase activity was measured and plotted as a percentage of control. Data represent the mean of three independent experiments with quadruplicate samples; bars, SEM. ***, p value <0.001 determined by ANOVA.
VCaP-MDVR and 22Rv1-MDVR stably expressing ARE-luciferase construct (VCaP-MDVR-ARE-luc and 22Rv1-MDVR-ARE-luc) were generated as described above in the Materials and Methods section. […].

COc1ccc2c(c1)[nH]c1c(C)c(OS(=O)(=O)c3cccc4ccccc34)ccc12 [SH-I-125, 7-methoxy-1-methyl-9H-carbazol-2-yl naphthalene-1-sulfonate]
potency relative to mahanine on AR signaling (ARE-luc) (AR [1]): more potent than mahanine
inhibition of AR transactivation (luciferase activity) (AR [1]; range of doses): comparable decline in luciferase activity
hTERT promoter-luciferase activity (hTERT promoter): unaffected
VP16-Gal4DBD luciferase activity [2]: did not affect luciferase activity
live and dead cell staining (PrEC): mostly unaffected
caspase 3/7 activity (22Rv1 cells; 3 days): induced caspase activity
caspase-3 and -7 activities, time-course (22Rv1 cells; SH-I-125 1 μM, after three days treatment): significantly induced
caspase 3/7 activity (VCaP cells): induced caspase activity
cellular AR and AR-V7 levels (AR and AR-V7; 3 days, SH-I-125 at 1 μM): reduced AR and AR-V7 levels
AR and AR splice variant levels in the presence of proteasome inhibitor MG132 (AR and AR-V7; SH-I-125 plus MG132): Proteasome inhibition rescued the decline
inhibitory effect on AR activity (luciferase) (AR [3]): retained its inhibitory effect
